Data published in patent US20230085307A1, “PYRIDAZINONE COMPOUND AND HERBICIDE” (NISSAN CHEMICAL CORPORATION, priority 2019, published 2023).

Experiments:
green foxtail [1] = experiment: Test Example 4: herbicidal effect by soil treatment (Table 19, symbol G); type: in vivo, green foxtail (Setaria viridis); details: amount of applied herbicide 320 g/ha
Procedure, shortened: (§1)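 Applied as a water-diluted emulsion, the compound was sprayed onto soil covering newly sown seeds. Evaluation came three weeks after application, in a greenhouse held at 25° C. to 30° C.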

velvetleaf [2] = experiment: Test Example 4: herbicidal effect by soil treatment (Table 19, symbol M); type: in vivo, velvetleaf (Abutilon theophrasti); details: amount of applied herbicide 320 g/ha
Procedure, shortened: as §1

Japanese bulrush [3] = experiment: Test Example 1: herbicidal activity, application before weed generation under submerged conditions (Table 16, symbol B); type: in vivo, Japanese bulrush (Schoenoplectus juncoides)
Procedure, shortened: (§2)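 Emulsion formulation, water-diluted to set dose, was put onto the flooded surface (4 cm depth, alluvial soil) the same day weeds were sown and 2.5-leaf rice transplanted. After 3 weeks at 25-30 °C under glass, each species was rated 0 (≤5% kill) to 5 (≥90% kill).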

windgrass [4] = experiment: Test Example 4: herbicidal effect by soil treatment (Table 19, symbol L); type: in vivo, windgrass (Apera spica-venti); details: amount of applied herbicide 320 g/ha
Procedure, shortened: as §1

redroot pigweed [5] = experiment: Test Example 4: herbicidal effect by soil treatment (Table 19, symbol N); type: in vivo, redroot pigweed (Amaranthus retroflexus); details: amount of applied herbicide 320 g/ha
Procedure, shortened: as §1

southern crabgrass [6] = experiment: Test Example 4: herbicidal effect by soil treatment (Table 19, symbol F); type: in vivo, southern crabgrass (Digitaria ciliaris); details: amount of applied herbicide 320 g/ha
Procedure, shortened: as §1

blackgrass [7] = experiment: Test Example 4: herbicidal effect by soil treatment (Table 19, symbol J); type: in vivo, blackgrass (Alopecurus myosuroides); details: amount of applied herbicide 320 g/ha
Procedure, shortened: as §1

lambsquarters [8] = experiment: Test Example 4: herbicidal effect by soil treatment (Table 19, symbol O); type: in vivo, lambsquarters (Chenopodium album); details: amount of applied herbicide 320 g/ha
Procedure, shortened: as §1

oval-leafed pondweed [9] = experiment: Test Example 1: herbicidal activity, application before weed generation under submerged conditions (Table 16, symbol C); type: in vivo, oval-leafed pondweed (Monochoria vaginalis)
Procedure, shortened: as §2

oval-leafed pondweed [10] = experiment: Test Example 2: herbicidal activity, application during weed generation under submerged conditions (Table 17, symbol C); type: in vivo, oval-leafed pondweed (Monochoria vaginalis); details: AAH 320 g/ha; application during weed generation, submerged conditions
Procedure, shortened: (§3)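 In this pot test, flooded alluvial soil (water depth 4 cm) holds all three species sown as a mixture. Once seedlings have one to two leaves, the compound's emulsion, thinned with water to the intended dose, is poured on the water; grading follows after three weeks on the earlier criteria.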

late watergrass [11] = experiment: Test Example 2: herbicidal activity, application during weed generation under submerged conditions (Table 17, symbol A); type: in vivo, late watergrass (Echinochloa oryzicola); details: AAH 320 g/ha; application during weed generation, submerged conditions
Procedure, shortened: as §3

Japanese bulrush [12] = experiment: Test Example 2: herbicidal activity, application during weed generation under submerged conditions (Table 17, symbol B); type: in vivo, Japanese bulrush (Schoenoplectus juncoides); details: AAH 320 g/ha; application during weed generation, submerged conditions
Procedure, shortened: as §3

persian speedwell [13] = experiment: Test Example 4: herbicidal effect by soil treatment (Table 19, symbol R); type: in vivo, Persian speedwell (Veronica persica); details: amount of applied herbicide 320 g/ha
Procedure, shortened: as §1

chickweed [14] = experiment: Test Example 4: herbicidal effect by soil treatment (Table 19, symbol P); type: in vivo, common chickweed (Stellaria media); details: amount of applied herbicide 320 g/ha
Procedure, shortened: as §1

barnyard grass [15] = experiment: Test Example 4: herbicidal effect by soil treatment (Table 19, symbol H); type: in vivo, barnyard grass (Echinochloa crus-galli); details: amount of applied herbicide 320 g/ha
Procedure, shortened: as §1

wild oat [16] = experiment: Test Example 4: herbicidal effect by soil treatment (Table 19, symbol I); type: in vivo, wild oat (Avena fatua); details: amount of applied herbicide 320 g/ha
Procedure, shortened: as §1

Chinese sprangletop = experiment: Test Example 3: herbicidal effect by foliage application, Wagner pot (Table 18, symbol D); type: in vivo, chinese sprangletop (Leptochloa chinensis)
Procedure, shortened: (§4)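 Plants were sown in alluvial soil held under 0.1–0.5 cm standing water and grown 14 days in a greenhouse at 25–30 °C. An emulsifiable formulation, water-diluted to the set dose, was then sprayed onto the foliage, and effects were scored three weeks later using previously defined criteria.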

late watergrass [17] = experiment: Test Example 1: herbicidal activity, application before weed generation under submerged conditions (Table 16, symbol A); type: in vivo, late watergrass (Echinochloa oryzicola)
Procedure, shortened: as §2

barnyard grass [18] = experiment: Test Example 3: herbicidal effect by foliage application, Wagner pot (Table 18, symbol H); type: in vivo, barnyard grass (Echinochloa crus-galli)
Procedure, shortened: as §4

rice flat sedge = experiment: Test Example 3: herbicidal effect by foliage application, Wagner pot (Table 18, symbol E); type: in vivo, rice flat sedge (Cyperus iria)
Procedure, shortened: as §4

Italian ryegrass [19] = experiment: Test Example 4: herbicidal effect by soil treatment (Table 19, symbol K); type: in vivo, Italian ryegrass (Lolium multiflorum); details: amount of applied herbicide 320 g/ha
Procedure, shortened: as §1

chickweed [20] = experiment: Test Example 5: herbicidal effect by foliage application, plastic box (Table 20, symbol P); type: in vivo, common chickweed (Stellaria media); details: amount of applied herbicide 320 g/ha; foliage application after 14-day growth; evaluated three weeks after application
Procedure, shortened: (§5)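 Sow seeds spot-wise in sterilized diluvial soil; cover with ~1.5 cm soil. Grow 14 days in greenhouse, 25° C. to 30° C. Spray foliage with emulsion diluted to predetermined amount. Rate effect after 3 weeks.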

barnyard grass [21] = experiment: Test Example 5: herbicidal effect by foliage application, plastic box (Table 20, symbol H); type: in vivo, barnyard grass (Echinochloa crus-galli); details: amount of applied herbicide 320 g/ha; foliage application after 14-day growth; evaluated three weeks after application
Procedure, shortened: as §5

persian speedwell [22] = experiment: Test Example 5: herbicidal effect by foliage application, plastic box (Table 20, symbol R); type: in vivo, Persian speedwell (Veronica persica); details: amount of applied herbicide 320 g/ha; foliage application after 14-day growth; evaluated three weeks after application
Procedure, shortened: as §5

green foxtail [23] = experiment: Test Example 5: herbicidal effect by foliage application, plastic box (Table 20, symbol G); type: in vivo, green foxtail (Setaria viridis); details: amount of applied herbicide 320 g/ha; foliage application after 14-day growth; evaluated three weeks after application
Procedure, shortened: as §5

windgrass [24] = experiment: Test Example 5: herbicidal effect by foliage application, plastic box (Table 20, symbol L); type: in vivo, windgrass (Apera spica-venti); details: amount of applied herbicide 320 g/ha; foliage application after 14-day growth; evaluated three weeks after application
Procedure, shortened: as §5

velvetleaf [25] = experiment: Test Example 5: herbicidal effect by foliage application, plastic box (Table 20, symbol M); type: in vivo, velvetleaf (Abutilon theophrasti); details: amount of applied herbicide 320 g/ha; foliage application after 14-day growth; evaluated three weeks after application
Procedure, shortened: as §5

blackgrass [26] = experiment: Test Example 5: herbicidal effect by foliage application, plastic box (Table 20, symbol J); type: in vivo, blackgrass (Alopecurus myosuroides); details: amount of applied herbicide 320 g/ha; foliage application after 14-day growth; evaluated three weeks after application
Procedure, shortened: as §5

wild oat [27] = experiment: Test Example 5: herbicidal effect by foliage application, plastic box (Table 20, symbol I); type: in vivo, wild oat (Avena fatua); details: amount of applied herbicide 320 g/ha; foliage application after 14-day growth; evaluated three weeks after application
Procedure, shortened: as §5

southern crabgrass [28] = experiment: Test Example 5: herbicidal effect by foliage application, plastic box (Table 20, symbol F); type: in vivo, southern crabgrass (Digitaria ciliaris); details: amount of applied herbicide 320 g/ha; foliage application after 14-day growth; evaluated three weeks after application
Procedure, shortened: as §5

redroot pigweed [29] = experiment: Test Example 5: herbicidal effect by foliage application, plastic box (Table 20, symbol N); type: in vivo, redroot pigweed (Amaranthus retroflexus); details: amount of applied herbicide 320 g/ha; foliage application after 14-day growth; evaluated three weeks after application
Procedure, shortened: as §5

Italian ryegrass [30] = experiment: Test Example 5: herbicidal effect by foliage application, plastic box (Table 20, symbol K); type: in vivo, Italian ryegrass (Lolium multiflorum); details: amount of applied herbicide 320 g/ha; foliage application after 14-day growth; evaluated three weeks after application
Procedure, shortened: as §5

lambsquarters [31] = experiment: Test Example 5: herbicidal effect by foliage application, plastic box (Table 20, symbol O); type: in vivo, lambsquarters (Chenopodium album); details: amount of applied herbicide 320 g/ha; foliage application after 14-day growth; evaluated three weeks after application
Procedure, shortened: as §5

[32] = amount of applied herbicide 320 g/ha

CCCC(=O)Oc1c(C)nn(C)c(=O)c1-c1c(-c2ccc(C(F)(F)F)cc2F)sc2ccc(F)cc12 [2-355]
herbicidal effect, G: green foxtail (green foxtail [1]): 0 (Herbicidal rate of 5% or less (almost no effect)) | herbicidal effect, M: velvetleaf (velvetleaf [2]): 0 (Herbicidal rate of 5% or less (almost no effect)) | Herbicidal effect on B: Japanese bulrush (grade 0-5) (Japanese bulrush [3]; 320 g/ha applied herbicide): 3 (Herbicidal rate of 40% or more and less than 70%) | herbicidal effect, L: windgrass (windgrass [4]): 3 (Herbicidal rate of 40% or more and less than 70%) | herbicidal effect, N: redroot pigweed (redroot pigweed [5]): 0 (Herbicidal rate of 5% or less (almost no effect)) | herbicidal effect, F: southern crabgrass (southern crabgrass [6]): 0 (Herbicidal rate of 5% or less (almost no effect)) | herbicidal effect, J: blackgrass (blackgrass [7]): 0 (Herbicidal rate of 5% or less (almost no effect)) | herbicidal effect, O: lambsquarters (lambsquarters [8]): 3 (Herbicidal rate of 40% or more and less than 70%) | Herbicidal effect on C: oval-leafed pondweed (grade 0-5) (oval-leafed pondweed [9]; 320 g/ha applied herbicide): 0 (Herbicidal rate of 5% or less (almost no effect)) | herbicidal effect rating, C: oval-leafed pondweed (oval-leafed pondweed [10]): 3 (Herbicidal rate of 40% or more and less than 70%) | herbicidal effect rating, A: late watergrass (late watergrass [11]): 3 (Herbicidal rate of 40% or more and less than 70%) | herbicidal effect rating, B: Japanese bulrush (Japanese bulrush [12]): 3 (Herbicidal rate of 40% or more and less than 70%) | herbicidal effect, R: persian speedwell (persian speedwell [13]): 3 (Herbicidal rate of 40% or more and less than 70%) | herbicidal effect, P: chickweed (chickweed [14]): 3 (Herbicidal rate of 40% or more and less than 70%) | herbicidal effect, H: barnyard grass (barnyard grass [15]): 0 (Herbicidal rate of 5% or less (almost no effect)) | herbicidal effect, I: wild oat (wild oat [16]): 0 (Herbicidal rate of 5% or less (almost no effect)) | herbicidal effect on D: Chinese sprangletop (Chinese sprangletop; [32]): 5 (Herbicidal rate of 90% or more (almost completely withered)) | Herbicidal effect on A: late watergrass (grade 0-5) (late watergrass [17]; 320 g/ha applied herbicide): 4 (Herbicidal rate of 70% or more and less than 90%) | herbicidal effect on H: barnyard grass (barnyard grass [18]; [32]): 5 (Herbicidal rate of 90% or more (almost completely withered)) | herbicidal effect on E: rice flat sedge (rice flat sedge; [32]): 5 (Herbicidal rate of 90% or more (almost completely withered)) | herbicidal effect, K: Italian ryegrass (Italian ryegrass [19]): 4 (Herbicidal rate of 70% or more and less than 90%)

CCCC(=O)Oc1c(C)nn(C)c(=O)c1-c1c(-c2ccc(C#N)cc2)sc2cc(Cl)c(Cl)cc12 [5-050]
Herbicidal effect, B: Japanese bulrush (Japanese bulrush [3]; [32]): 0 (Herbicidal rate of 5% or less (almost no effect)) | Herbicidal effect by foliage application, P: chickweed (chickweed [20]): 3 (Herbicidal rate of 40% or more and less than 70%) | Herbicidal effect by foliage application, H: barnyard grass (barnyard grass [21]): 0 (Herbicidal rate of 5% or less (almost no effect)) | Herbicidal effect by foliage application, R: persian speedwell (persian speedwell [22]): 3 (Herbicidal rate of 40% or more and less than 70%) | Herbicidal effect by foliage application, G: green foxtail (green foxtail [23]): 0 (Herbicidal rate of 5% or less (almost no effect)) | Herbicidal effect by foliage application, L: windgrass (windgrass [24]): 0 (Herbicidal rate of 5% or less (almost no effect)) | Herbicidal effect by foliage application, M: velvetleaf (velvetleaf [25]): 0 (Herbicidal rate of 5% or less (almost no effect)) | Herbicidal effect, C: oval-leafed pondweed (oval-leafed pondweed [9]; [32]): 0 (Herbicidal rate of 5% or less (almost no effect)) | herbicidal effect rating, C: oval-leafed pondweed (oval-leafed pondweed [10]): 0 (Herbicidal rate of 5% or less (almost no effect)) | herbicidal effect rating, A: late watergrass (late watergrass [11]): 0 (Herbicidal rate of 5% or less (almost no effect)) | Herbicidal effect by foliage application, J: blackgrass (blackgrass [26]): 0 (Herbicidal rate of 5% or less (almost no effect)) | Herbicidal effect by foliage application, I: wild oat (wild oat [27]): 0 (Herbicidal rate of 5% or less (almost no effect)) | Herbicidal effect by foliage application, F: southern crabgrass (southern crabgrass [28]): 0 (Herbicidal rate of 5% or less (almost no effect)) | herbicidal effect rating, B: Japanese bulrush (Japanese bulrush [12]): 2 (Herbicidal rate of 20% or more and less than 40%) | herbicidal effect on Chinese sprangletop (D) (Chinese sprangletop; 320 g/ha): 4 (Herbicidal rate of 70% or more and less than 90%) | Herbicidal effect by foliage application, N: redroot pigweed (redroot pigweed [29]): 0 (Herbicidal rate of 5% or less (almost no effect)) | Herbicidal effect by foliage application, K: Italian ryegrass (Italian ryegrass [30]): 0 (Herbicidal rate of 5% or less (almost no effect)) | Herbicidal effect by foliage application, O: lambsquarters (lambsquarters [31]): 0 (Herbicidal rate of 5% or less (almost no effect)) | Herbicidal effect, A: late watergrass (late watergrass [17]; [32]): 3 (Herbicidal rate of 40% or more and less than 70%) | herbicidal effect on barnyard grass (H) (barnyard grass [18]; 320 g/ha): 2 (Herbicidal rate of 20% or more and less than 40%) | herbicidal effect on rice flat sedge (E) (rice flat sedge; 320 g/ha): 0 (Herbicidal rate of 5% or less (almost no effect))
